Reference: patent US20230414552A1, “NOVEL METHODS” (Colgate-Palmolive Company, priority 2020, published 2023)

Legend:
Type in all cases: cell-based
PDLSCs [1] = experiment: BrdU analysis of PDLSC proliferation; settings: ERK activator treatment of PDLSCs
Text: (§1) To examine whether ERK activator can elevate PDLSC function through Wnt signaling, five different ERK activators are used to treat PDLSCs, and BMSCs (“Bone marrow-derived mesenchymal stem/stromal cells”) serve as the control in this experiment.

BMSCs = experiment: BrdU analysis of BMSC proliferation (control cells); settings: BMSCs as control cells
Text: as §1

Wnt/β-catenin = experiment: Western blot of ERK downstream signaling in PDLSCs; settings: PDLSCs after treatment
Text: Subsequently, ERK downstream signaling pathways involve screening using a Western blot technique. This includes screening for Shp2 signaling, Notch signaling, and Wnt signaling.

PDLSCs [2] = experiment: Alizarin red staining of PDLSC osteogenesis under osteogenic induction; settings: for Mineralized Area (% Total Area): control 47% ± 3.61
Method: To examine the effect of natural compounds PEITC and resveratrol in PDLSC osteogenesis, cells are treated with 1 uM PEITC or 5 uM resveratrol under osteogenic induction. […] The stained positive areas are then quantifiable using NIH ImageJ software and shown as a percentage of the total area. To examine the effect of natural compounds yellow and white curcumin extracts in GMSC and PDLSC osteogenesis, cells are treated with 5 μM yellow and white curcumin extracts under osteogenic induction. Alizarin red staining show yellow curcumin extract, but not white curcumin extract treatment elevated osteogenic differentiation, as indicated by increased mineralized nodule formation. The stained positive areas were quantified using NIH ImageJ software and shown as a percentage of the total area.

PDLSCs [3] = experiment: Western blot of osteogenic genes Runx2 and ALP in PDLSCs; settings: PDLSC, 1 uM PEITC or 5 uM resveratrol, osteogenic induction
Method: The expression of the osteogenic genes runt-related transcription factor 2 (Runx2) and alkaline phosphatase (ALP) are also elevated in PEITC or resveratrol treated groups, assessable by Western blot. […] To examine the effect of natural compounds yellow and white curcumin extracts in GMSC and PDLSC osteogenesis, cells are treated with 5 μM yellow and white curcumin extracts under osteogenic induction. Alizarin red staining show yellow curcumin extract, but not white curcumin extract treatment elevated osteogenic differentiation, as indicated by increased mineralized nodule formation. The stained positive areas were quantified using NIH ImageJ software and shown as a percentage of the total area.

CD3+ T cells = experiment: PDLSC/T cell co-culture, flow cytometric analysis of apoptotic T cells; settings: flow cytometry
Method: PEITC and resveratrol are tested to determine whether they contribute to PDLSC immunomodulation. A PDLSC/T cell co-culture experiment examines the immunomodulatory properties of PDLSCs with different compounds treatment.

PDLSCs [4] = experiment: Toluidine blue staining of surviving PDLSCs after co-culture with activated T cells
Text: After co-culture, toluidine blue staining allows for observation of the surviving PDLSCs that remain on the culture plates as positive staining. […] Natural ERK activators, PEITC and resveratrol, protect PDLSCs survival.

GMSC = experiment: BrdU incorporation assay of GMSC proliferation; settings: for Brdu + BMSC/Total Cells (%): control 28.1% ± 0.75

| Compound | PDLSC proliferation rate (BrdU analysis) (PDLSCs [1]) | effect on proliferation rate in BMSCs (BrdU analysis) (BMSCs) | Wnt/β-catenin activation (Western blot) (Wnt/β-catenin) | osteogenic differentiation, mineralized nodule formation (Alizarin red staining) (PDLSCs [2]; 1 uM PEITC) | Mineralized Area (% Total Area) (PDLSCs [2]; 1 μM) | expression of Runx2 (Western blot) (PDLSCs [3]) | expression of alkaline phosphatase (ALP) (Western blot) (PDLSCs [3]) | PDLSC immunomodulation (AnnexinV+7AAD+ double positive apoptotic CD3+ T cells) (CD3+ T cells) | PDLSC survival from activated T cell attack (toluidine blue staining) (PDLSCs [4]) | GMSC cell proliferation (BrdU incorporation assay) (GMSC; 1 uM) | Brdu + BMSC/Total Cells (%) (GMSC; 1 μM) | osteogenic differentiation, mineralized nodule formation (Alizarin red staining) (PDLSCs [2]; 5 uM resveratrol) | Mineralized Area (% Total Area) (PDLSCs [2]; 5 μM) | GMSC cell proliferation (BrdU incorporation assay) (GMSC; 5 uM) | Brdu + BMSC/Total Cells (%) (GMSC; 5 μM) |
| --- | --- | --- | --- | --- | --- | --- | --- | --- | --- | --- | --- | --- | --- | --- | --- |
| S=C=NCCc1ccccc1 [PEITC, Phenethyl Isothiocyanate] | significantly increases | not observable | highly activated | elevate | 65% ± 3.46 | elevated | elevated | significantly promotes | protect | significantly elevated | 48.6% ± 4.79 |  |  |  |  |
| Oc1ccc(/C=C/c2cc(O)cc(O)c2)cc1 [resveratrol, 3,5,4′-trihydroxy-trans-stilbene] | significantly increases | not observable | highly activated |  |  | elevated | elevated | significantly promotes | protect |  |  | elevate | 59% ± 2.00 | significantly elevated | 47.6% ± 3.17 |
| CC(C)(C)c1cc(O)ccc1O [t-Butylhydroquinone, reference compound] | significantly increases | not observable | highly activated |  |  |  |  |  |  |  |  |  |  |  |  |
